Our source for the colonies formed and growth inhibition values is US11198677B2, “Deoxyuridine triphosphatase inhibitors containing amino sulfonyl linkage” (University of Southern California, priority 2015, dated 2021).

The subject of experiment [1] is colorectal (HCT116), breast (MCF-7) and non-small cell lung (H1299, A549, H358 and H460) cell line models. Kind of experiment: Colony forming assay. The note with it: increasing concentrations between 0.5 and 2.5 μmol/L; all cell lines evaluated. In kind it is cell-based. The procedure: Colony forming assay showing the ability of colon (SW620, HCT116), non-small cell lung (A549, H460, H1299 and H358) and breast (MCF7) cancer cells to survive and proliferate following transient 24 hour exposure to test compounds, FUdR and combinations are determined. Specifically, cells are seeded at densities between 50 and 100 cells/well in 24-well plates. Twenty-four hours later, cells are treated with increasing concentrations of a test compound, a fixed dose of FUdR and combinations of these. After 24 hours, drug is removed, cells are rinsed and allowed to outgrow for 10-14 days. At the conclusion of the outgrowth, cells are fixed in 60% ice cold methanol and stained with 0.1% crystal violet, scanned and counted. Data is presented as percentage of untreated controls (mean±SD). Fraction affected and combination indexes are calculated according to the method of Chou and Talalay where <1 is indicative of a synergistic drug interaction.
Colony forming assays are performed to evaluate the effectiveness of test compounds alone and in combination with the fluoropyrimidine thymidylate synthase (TS) inhibitor fluorodeoxyuridine (FUdR) at reducing cancer cell viability in colorectal (HCT116), breast (MCF-7) and non-small cell lung (H1299, A549, H358 and H460) cell line models. […]

The subject of experiment [2] is colorectal (HCT116 and SW620) cell line models. The experiment can be described thus: MTS growth inhibition assay. It is filed as cell-based. The note with it: increasing concentrations between 0 and 100 μmol/L; both colorectal cancer cell lines evaluated. As to the method: The Cell Titer AQueous MTS assay (Promega) is carried out according to the manufacturers guidelines. […] The combination effect is determined by the combination index (CI) method utilizing Calcusyn software (Biosoft, Ferguson, Mo.). Fraction affected (FA) is calculated from the percent growth inhibition: FA=[…]. CI values <1, synergism; 1-1.2, additive and >1.2, antagonism.
Test compounds are evaluated for their antitumor activity in colorectal cancer cells using the MTS growth inhibition assay. HCT116 and SW620 cells are exposed to increasing concentrations of each agent for 72 hours and growth inhibition is directly compared to vehicle-treated controls. The NSCLC cell lines A549 and H1299 are exposed to increasing concentrations of each agent for 72 hours and growth inhibition is directly compared to vehicle-treated controls.
MTS growth inhibition assays are performed to evaluate the effectiveness of the test compounds alone and in combination with the fluoropyrimidine thymidylate synthase (TS) inhibitor 5-fluorouracil (5-FU) at inhibiting the growth of colorectal (HCT116 and SW620) cell line models. […] Simultaneous treatment with increasing concentrations of 5-FU and a test compound at fixed concentrations of 25 μmol/L is determined.

For `O=c1[nH]c(=O)n([C@H]2C[C@H](O)[C@@H](CO)O2)cc1F` [FUdR, fluorodeoxyuridine], in experiment [1], the colonies formed entry is recorded as “dose-dependent decreases in colonies formed”.

As for `O=c1[nH]cc(F)c(=O)[nH]1` [Compound 5-FU, 5-fluorouracil], the growth inhibition entry in experiment [2] was “dose-dependent increases in growth inhibition”.
